Measured values reported in PubChem BioAssay (NCI).
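Cells were grown in 96-well plates and exposed to each compound for 48 hours at five concentrations; endpoints were interpolated linearly between bracketing concentrations, or set to the highest concentration if not reached. GI50 = concentration required for 50% inhibition of growth. At the TGI there is no net growth.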

What was measured:
Assay in all cases: NCI tumour cell line growth inhibition, 48 h
[1] = tested on: CAKI-1 renal
[2] = tested on: COLO 205 colon
[3] = tested on: HOP-92 NSCLC
[4] = tested on: K-562 leukemia
[5] = tested on: NCI-H23 lung
[6] = tested on: SK-OV-3 ovarian
[7] = tested on: SNB-19 CNS
[8] = tested on: SR leukemia
[9] = tested on: SW-620 colon
[10] = tested on: T-47D breast
[11] = tested on: U251 CNS

COc1ccc(/C=C2\C[C@H]3[C@@H]4CCC5=CC(=O)CC[C@]5(C)[C@H]4CC[C@]3(C)C2=O)cc1OC
TGI [1]: > 100 µM
TGI [2]: 9.93 µM
TGI [3]: > 100 µM
TGI [4]: > 100 µM
TGI [5]: > 100 µM
TGI [6]: > 100 µM
TGI [7]: > 100 µM
TGI [8]: 7.4 µM
TGI [9]: > 100 µM
TGI [10]: > 100 µM

Cc1ccc(C(=O)N/N=C(\N=Nc2ccc(C(=O)O)cc2)c2ccc(N(CCC#N)CCC#N)cc2C)cc1
TGI [1]: > 100 µM
TGI [2]: > 100 µM
TGI [3]: > 100 µM
TGI [4]: > 100 µM
TGI [5]: > 100 µM
TGI [6]: > 100 µM
TGI [7]: > 100 µM
TGI [8]: > 100 µM
TGI [9]: > 100 µM
TGI [10]: > 100 µM
TGI [11]: > 100 µM

O=C(N/N=C/c1ccccc1)c1cccc2nc3ccccc3nc12
TGI [1]: > 100 µM
TGI [2]: 18 µM
TGI [3]: > 100 µM
TGI [4]: > 100 µM
TGI [5]: > 69.2 µM
TGI [6]: > 100 µM
TGI [7]: > 100 µM
TGI [8]: > 100 µM
TGI [9]: > 100 µM
TGI [10]: > 100 µM
TGI [11]: > 100 µM

CCCCCCCCCCCCCCCCCCOCC(O)COP(=O)(O)OCC1OC(n2ccc(N)nc2=O)C(O)C1O (stereo not given)
TGI [1]: 75 µM
TGI [2]: 29.5 µM
TGI [3]: 71.8 µM
TGI [4]: > 100 µM
TGI [5]: > 100 µM
TGI [6]: > 100 µM
TGI [7]: 24.6 µM
TGI [8]: 40.4 µM
TGI [9]: > 100 µM
TGI [10]: > 100 µM
TGI [11]: 30.2 µM

COc1cc(OC)c2[nH]c3c(O)c(-c4c(C)cc5c([nH]c6c(OC)cc(OC)cc65)c4O)c(C)cc3c2c1
GI50 [1]: 9.89 µM
TGI [1]: 22.1 µM
TGI [3]: 15.6 µM
GI50 [4]: 9.7 µM
TGI [4]: 20.5 µM
GI50 [5]: 8.2 µM
TGI [5]: 16.7 µM
GI50 [8]: 9.01 µM
TGI [8]: 20 µM
TGI [9]: 20.3 µM
TGI [10]: 17.7 µM
TGI [11]: 50 µM

O=C(c1ccccc1)N1C(=S)N(c2ccccn2)C(=Nc2ccccc2)C1=Nc1ccccc1
TGI [1]: 43.8 µM
TGI [2]: > 52.7 µM
TGI [3]: 20.8 µM
TGI [4]: > 60.9 µM
TGI [5]: > 36.5 µM
TGI [6]: > 86.6 µM
TGI [7]: > 96.2 µM
TGI [8]: > 63 µM
TGI [9]: > 65.6 µM
TGI [10]: > 62.1 µM
TGI [11]: 39.6 µM

CCOP(=O)(OCC)OC1c2[nH]cc(C(=O)OCc3ccccc3)c2-c2cc(C(=O)OC)[nH]c2C1OC (stereo not given)
TGI [1]: > 100 µM
TGI [2]: > 100 µM
TGI [3]: 26.3 µM
TGI [4]: > 100 µM
TGI [5]: > 100 µM
TGI [6]: 58 µM
TGI [7]: > 100 µM
TGI [8]: > 100 µM
TGI [9]: > 100 µM
TGI [10]: 24 µM
TGI [11]: > 96.6 µM

CC1=C(C(=O)N[C@@H](CC(C)C)C(=O)O)N2C(=O)[C@@H](NC(=O)C(N)c3ccccc3)[C@H]2SC1 (stereo not given in full)
TGI [1]: > 100 µM
TGI [2]: > 100 µM
TGI [3]: > 100 µM
TGI [4]: > 100 µM
TGI [7]: > 100 µM
TGI [8]: > 100 µM
TGI [9]: > 100 µM
TGI [10]: > 100 µM
TGI [11]: > 100 µM

C#CC1(O)CCCCCCCCC2(CCCCCCCC1)OCCO2
TGI [1]: 24.7 µM
TGI [2]: 33.2 µM
TGI [3]: 33.3 µM
TGI [4]: 43.6 µM
TGI [5]: 33.9 µM
TGI [6]: 33.2 µM
TGI [7]: 33 µM
TGI [8]: 34.3 µM
TGI [9]: 34.7 µM
TGI [10]: 33.8 µM
TGI [11]: 30.8 µM

N#Cc1c(O)c(/C=N/c2ncccn2)c(=O)n2c1[nH]c1ccccc12
TGI [1]: > 100 µM
TGI [2]: > 100 µM
TGI [3]: > 100 µM
TGI [4]: > 100 µM
TGI [5]: > 100 µM
TGI [6]: > 100 µM
TGI [7]: > 100 µM
TGI [8]: > 100 µM
TGI [9]: > 100 µM
TGI [10]: > 100 µM
TGI [11]: > 100 µM

ON=C(CC(O)(C(F)(F)Cl)C(F)(F)Cl)CC(O)(C(F)(F)Cl)C(F)(F)Cl
TGI [1]: > 10 µM
TGI [2]: > 10 µM
TGI [4]: > 10 µM
TGI [5]: > 10 µM
TGI [6]: > 10 µM
TGI [7]: > 10 µM
TGI [8]: > 10 µM
TGI [9]: > 10 µM
TGI [10]: > 10 µM
TGI [11]: > 10 µM

COC(=O)/C=C1/OC(c2ccc(OC)cc2)=C(Cl)C1=O
TGI [1]: 27 µM
TGI [2]: 23.7 µM
TGI [3]: 57.5 µM
TGI [4]: 11.3 µM
TGI [5]: 34.9 µM
TGI [6]: 25.2 µM
TGI [7]: 52.8 µM
TGI [8]: 9.53 µM
TGI [9]: 28.1 µM
TGI [10]: 36.6 µM
TGI [11]: 22.4 µM

O=C(OCCNC(=O)N1CC1)OCCNC(=O)N1CC1
TGI [1]: > 10 µM
TGI [2]: > 10 µM
TGI [3]: > 10 µM
TGI [4]: > 10 µM
TGI [5]: > 10 µM
TGI [6]: > 10 µM
TGI [7]: > 10 µM
TGI [8]: > 10 µM
TGI [9]: > 10 µM
TGI [10]: > 10 µM
TGI [11]: > 10 µM

Cc1cnc2sn(-c3ccc(Br)cc3)c(=O)c2c1
TGI [1]: 30.7 µM
TGI [2]: 49.3 µM
TGI [3]: 68.8 µM
TGI [5]: > 100 µM
TGI [6]: > 100 µM
TGI [7]: > 100 µM
TGI [8]: > 100 µM
TGI [9]: 89.6 µM
TGI [10]: 48.4 µM
TGI [11]: > 100 µM

CCOC(=O)NN(C(=O)OCC)c1c(C)cc(C)cc1C
TGI [1]: > 100 µM
TGI [2]: > 100 µM
TGI [4]: > 100 µM
TGI [5]: > 100 µM
TGI [6]: > 100 µM
TGI [7]: > 100 µM
TGI [8]: > 100 µM
TGI [9]: > 100 µM
TGI [10]: > 100 µM
TGI [11]: > 100 µM

Cc1ccc2c(/C=C/c3ccc(N(C)C)cc3)ccc(C(C)C)cc1-2
TGI [1]: > 100 µM
TGI [2]: > 100 µM
TGI [3]: > 100 µM
TGI [4]: > 100 µM
TGI [5]: > 100 µM
TGI [6]: > 100 µM
TGI [8]: > 100 µM
TGI [9]: > 100 µM
TGI [10]: > 100 µM
TGI [11]: > 100 µM

CC1(C)[C@@H]2C[C@H]1c1cnc(-c3ccccn3)cc1C2CCCCC[C@@H]1c2cc(-c3ccccn3)ncc2[C@@H]2C[C@H]1C2(C)C (stereo not given in full)
TGI [1]: > 30.3 µM
TGI [2]: > 32.8 µM
TGI [4]: > 100 µM
TGI [6]: > 100 µM
TGI [7]: > 100 µM
TGI [8]: > 100 µM
TGI [9]: > 100 µM
TGI [10]: > 100 µM
TGI [11]: > 100 µM

COC(=O)C12OC3CO[Si](C(C)C)(C(C)C)O[Si](C(C)C)(C(C)C)OC3C1Oc1nc(=O)ccn12 (stereo not given)
TGI [1]: 31.7 µM
TGI [2]: 32.9 µM
TGI [3]: 27.7 µM
TGI [4]: 30.6 µM
TGI [5]: 29 µM
TGI [6]: 31.1 µM
TGI [7]: 31.2 µM
TGI [8]: 32 µM
TGI [9]: 30 µM
TGI [10]: 33 µM
TGI [11]: 29.6 µM

CC(=O)OC(Cc1c(O)c2c(C)cccc2oc1=O)C(C)(C)O (stereo not given)
TGI [1]: > 100 µM
TGI [2]: > 100 µM
TGI [4]: > 100 µM
TGI [5]: > 100 µM
TGI [6]: > 100 µM
TGI [7]: > 100 µM
TGI [8]: > 100 µM
TGI [9]: > 100 µM
TGI [10]: > 100 µM
TGI [11]: > 100 µM

CCOC(=O)c1nnc2c(C#N)c(-c3ccccc3)c(C)n2c1N
TGI [1]: > 100 µM
TGI [2]: > 100 µM
TGI [4]: > 100 µM
TGI [5]: > 100 µM
TGI [6]: > 100 µM
TGI [7]: 89.2 µM
TGI [8]: > 100 µM
TGI [9]: > 100 µM
TGI [10]: > 100 µM
TGI [11]: > 100 µM
